Here are results for 22 compounds from patent US9796711B2, “Substituted pyrazolo[3,4-b]pyridin-6-carboxylic acids and method of use” (AbbVie S.àr.l., priority 2015, dated 2017).

The experiment concerns the target T1, ΔF508-CFTR (Homo sapiens, UniProt P13569, DEL508-508).
T1 construct: host or cells: CFBE41o-, doxycycline-inducible
Kind of experiment: CFTR cell surface levels using HRP-tagged ΔF508-CFTR expressing CFBE cells, intrinsic corrector capacity. It is filed as cell-based. The following applies: 20 hours at 33° C.; for pEC50: read-out: EC50. An excerpt: Measuring CFTR Cell Surface Levels Using HRP-Tagged AF508-CFTR Expressing CFBE Cells
The HRP-tagged AF508-CFTR cell assay measures the expression of CFTR-ΔF508 at the plasma membrane. CFTR-ΔF508 has a folding defect leading to absence of protein at the plasma membrane. This assay is used to evaluate the capacity of compounds to increase the expression of CFTR-ΔF508 at the plasma membrane. The CFTR-ΔF508 is tagged with HRP (horse radish peroxidase enzyme) within the ECL4 (Extracellular loop 4) of CFTR (Phuan, P.-W. et al. Synergy-based small-molecule screen using a human lung epithelial cell line yields AF508-CFTR correctors that augment VX-809 maximal efficacy. Mol. Pharmacol. 86, 42-51 (2014)). When HRP-tagged AF508-CFTR is present at the plasma membrane, the HRP enzyme activity can be measured. The amount of CFTR-ΔF508 that can be rescued to the plasma membrane is correlated with the amount of functional enzyme that can be measured.
There are several ways to measure the capacity of compounds to rescue CFTR-ΔF508 to the plasma membrane; either compounds are evaluated on their own and the impact on plasma membrane levels is measured or compounds are evaluated in combination with a co-corrector, i.e. a compound that rescues CFTR-ΔF508 to the plasma membrane but rescue can be enhanced by addition of compounds due to a complementary mode of action.
Activity of Compounds for their Intrinsic Corrector Capacity:
For this purpose doxycycline-inducible AF508-CFTR-HRP expressing CFBE4lo-cells (obtained from Gergely Lukacs, McGill University) were maintained in MEM (Gibco; 31095) supplemented with 10% fetal bovine serum (Hyclone; SV30160.03) under puromycin (3 μg/mL) and G418 selection (0.2 mg/mL). For compound testing, cells were seeded at 4000 cells/well in white 384-well plates (Greiner; 781080) in 50 μL medium containing 0.5 μg/mL doxycycline and incubated for 68 hours at 37° C., 5% CO2. On day four, 10 μL test compounds diluted in PBS were added to the plates at a final DMSO concentration of 0.1%. All compound plates contained negative controls (DMSO) and positive controls (3 μM corrector, 3-[(2R,4R)-4-({[1-(2,2-difluoro-1,3-benzodioxol-5-yl)cyclopropyl]carbonyl}amino)-7-methoxy-3,4-dihydro-2H-chromen-2-yl]benzoic acid). Cell plates were incubated at 33° C., 5% CO2 for 20 hours. On day five, the cells were washed five times with phosphate-buffered saline, and HRP activity was assayed by the addition of 50 μL/well of HRP substrate (SuperSignal™ West Pico Chemiluminescent Substrate, Thermo Scientific; 34080). After incubation for 15 minutes in the dark, chemiluminescence was measured using a plate reader (EnVision®, Perkin Elmer). Raw data were normalized to percentage activity values using the equation: 100×(Sample−Negative control)/(Positive control−Negative Control).

[1] abbreviates: HRP-tagged ΔF508-CFTR CFBE cells, compound alone (intrinsic corrector capacity).
The mark [2] stands for this setting: HRP-tagged ΔF508-CFTR CFBE41o- cells, compounds alone (intrinsic corrector capacity), positive control 3 μM corrector.
[3] abbreviates: HRP-tagged ΔF508-CFTR CFBE41o- cells, compounds alone (intrinsic corrector capacity).

The structures appear in SMILES notation. pEC50: −log10 of the molar value. Read-outs that look alike come from different tables or passages of the source. Some results are limits rather than exact numbers.

T1 sequence (P13569 with tags, fused parts or gaps DEL508-508): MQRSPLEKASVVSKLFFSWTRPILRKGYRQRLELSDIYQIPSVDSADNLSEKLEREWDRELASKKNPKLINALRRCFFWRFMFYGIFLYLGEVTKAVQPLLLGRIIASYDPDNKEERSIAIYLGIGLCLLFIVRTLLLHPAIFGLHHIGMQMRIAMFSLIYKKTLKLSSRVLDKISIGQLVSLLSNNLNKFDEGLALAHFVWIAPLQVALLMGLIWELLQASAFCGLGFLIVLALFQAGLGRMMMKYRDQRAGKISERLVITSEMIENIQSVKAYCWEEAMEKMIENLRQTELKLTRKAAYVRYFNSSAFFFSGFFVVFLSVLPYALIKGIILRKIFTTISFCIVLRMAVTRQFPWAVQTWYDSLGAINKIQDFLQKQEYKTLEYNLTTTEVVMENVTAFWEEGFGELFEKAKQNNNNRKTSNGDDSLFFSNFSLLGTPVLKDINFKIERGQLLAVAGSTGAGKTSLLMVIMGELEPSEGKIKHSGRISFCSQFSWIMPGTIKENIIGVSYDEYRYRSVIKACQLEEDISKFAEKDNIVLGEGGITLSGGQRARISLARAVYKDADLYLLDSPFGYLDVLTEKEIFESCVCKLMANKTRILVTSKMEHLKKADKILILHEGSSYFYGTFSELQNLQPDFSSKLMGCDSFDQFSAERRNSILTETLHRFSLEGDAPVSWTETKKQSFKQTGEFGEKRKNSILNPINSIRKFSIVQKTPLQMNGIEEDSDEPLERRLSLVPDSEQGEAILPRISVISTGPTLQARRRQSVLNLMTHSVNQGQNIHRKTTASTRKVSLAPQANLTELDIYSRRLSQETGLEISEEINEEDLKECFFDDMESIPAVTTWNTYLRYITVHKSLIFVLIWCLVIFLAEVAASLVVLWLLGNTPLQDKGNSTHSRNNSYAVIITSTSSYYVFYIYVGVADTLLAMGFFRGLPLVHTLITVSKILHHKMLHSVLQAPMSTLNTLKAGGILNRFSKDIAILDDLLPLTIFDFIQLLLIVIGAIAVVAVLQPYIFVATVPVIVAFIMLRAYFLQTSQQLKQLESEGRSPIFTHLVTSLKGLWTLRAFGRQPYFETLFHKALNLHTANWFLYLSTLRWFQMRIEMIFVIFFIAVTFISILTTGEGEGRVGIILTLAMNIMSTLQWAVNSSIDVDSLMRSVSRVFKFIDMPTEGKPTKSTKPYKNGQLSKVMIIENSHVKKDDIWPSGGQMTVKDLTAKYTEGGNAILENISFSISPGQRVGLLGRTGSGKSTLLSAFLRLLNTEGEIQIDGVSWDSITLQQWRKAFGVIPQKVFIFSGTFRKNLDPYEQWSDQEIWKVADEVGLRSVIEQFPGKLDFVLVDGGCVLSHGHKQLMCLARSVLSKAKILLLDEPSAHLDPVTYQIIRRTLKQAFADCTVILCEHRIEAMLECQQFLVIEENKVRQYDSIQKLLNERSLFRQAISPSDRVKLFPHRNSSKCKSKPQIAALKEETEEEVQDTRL

As for `CC(C)COC(=O)N1CCN(c2cc(C(=O)O)nc3c2c(C2CCC2)nn3-c2ccc(F)cc2)CC1` [compound 930, 3-cyclobutyl-1-(4-fluorophenyl)-4-{4-[(2-methylpropoxy)carbonyl]piperazin-1-yl}-1H-pyrazolo[3,4-b]pyridine-6-carboxylic acid], under setting [1], the “% Activation” value worked out at 434.3% and the negative logarithm of the EC50 (pEC50) (in general, −log10 of the EC50, conventionally taken in molar units) was 6.62.

In the case of `Cc1nn(-c2ccc(OC(F)(F)F)cc2)c2nc(C(=O)O)cc(-c3ccc(N4CCOCC4)cc3)c12` [compound 31, 3-methyl-4-[4-(morpholin-4-yl)phenyl]-1-[4-(trifluoromethoxy)phenyl]-1H-pyrazolo[3,4-b]pyridine-6-carboxylic acid], under setting [2], the “% Activation” value was determined as 96.335%. Moreover, the negative logarithm of the EC50 (pEC50) under setting [3] was 6.28.

For the compound `Cc1nn(-c2cc(Cl)cc(Cl)c2)c2nc(C(=O)O)cc(-c3ccc(N4CCOCC4)cc3)c12` [compound 44, 1-(3,5-dichlorophenyl)-3-methyl-4-[4-(morpholin-4-yl)phenyl]-1H-pyrazolo[3,4-b]pyridine-6-carboxylic acid], under setting [2], the “% Activation” value was 117.2%. The pEC50 under setting [3] is 5.66.

As to `Cc1nn(-c2ccnc(F)c2)c2nc(C(=O)O)cc(-c3ccc(N4CCOCC4)cc3)c12` [compound 57, 1-(2-fluoropyridin-4-yl)-3-methyl-4-[4-(morpholin-4-yl)phenyl]-1H-pyrazolo[3,4-b]pyridine-6-carboxylic acid], the “% Activation” value under setting [2] amounted to 68.57%. The negative logarithm of the EC50 (pEC50) under setting [3] is 5.48.

As for `Cc1nn(-c2ccccc2)c2nc(C(=O)O)cc(-c3ccc(N4CCN(S(C)(=O)=O)CC4)cc3)c12` [compound 53, 4-{4-[4-(methanesulfonyl)piperazin-1-yl]phenyl}-3-methyl-1-phenyl-1H-pyrazolo[3,4-b]pyridine-6-carboxylic acid], the “% Activation” value under setting [2] is on record as 72.97%. Besides, under setting [3], the negative-log EC50 (pEC50) is 5.48.

Turning to `COc1ccc(-c2cc(C(=O)O)nc3c2c(C)nn3C2CCCC2)cc1` [compound 3, 1-cyclopentyl-4-(4-methoxyphenyl)-3-methyl-1H-pyrazolo[3,4-b]pyridine-6-carboxylic acid], the “% Activation” value under setting [2] is reported as 46.83%. The negative-log EC50 (pEC50) under setting [3] was 5.48.

Turning to `CNC(=O)c1nn(-c2ccccc2)c2nc(C(=O)O)cc(-c3ccc(N4CCOCC4)cc3)c12` [compound 55, 3-(methylcarbamoyl)-4-[4-(morpholin-4-yl)phenyl]-1-phenyl-1H-pyrazolo[3,4-b]pyridine-6-carboxylic acid], under setting [2], the “% Activation” value amounted to 0.088%. Also, the negative logarithm of the EC50 (pEC50) under setting [3] is below 5.00.

For the compound `Cc1nn(C2CCN(C)CC2)c2nc(C(=O)O)cc(-c3ccc(N4CCOCC4)cc3)c12` [compound 39, 3-methyl-1-(1-methylpiperidin-4-yl)-4-[4-(morpholin-4-yl)phenyl]-1H-pyrazolo[3,4-b]pyridine-6-carboxylic acid], under setting [2], the “% Activation” value is reported as −2.469%. Moreover, under setting [3], the pEC50 is below 5.00.

On to `Cc1nn(-c2ccccc2)c2nc(C(=O)O)cc(-c3ccc(N4CCCC4)cc3)c12` [compound 25, 3-methyl-1-phenyl-4-[4-(pyrrolidin-1-yl)phenyl]-1H-pyrazolo[3,4-b]pyridine-6-carboxylic acid], for which the “% Activation” value under setting [2] is 93.1%. Further, the pEC50 under setting [3] was 5.82.

Take `Cc1nn(-c2cc(C(F)(F)F)[nH]n2)c2nc(C(=O)O)cc(-c3ccc(N4CCOCC4)cc3)c12` [compound 7, 3-methyl-4-[4-(morpholin-4-yl)phenyl]-1-[5-(trifluoromethyl)-1H-pyrazol-3-yl]-1H-pyrazolo[3,4-b]pyridine-6-carboxylic acid]: the “% Activation” value under setting [2] is listed as 5.355%. Also, the pEC50 under setting [3] was below 5.00.

For `Cc1nn(-c2cccc(S(N)(=O)=O)c2)c2nc(C(=O)O)cc(-c3ccc(N4CCOCC4)cc3)c12` [compound 45, 3-methyl-4-[4-(morpholin-4-yl)phenyl]-1-(3-sulfamoylphenyl)-1H-pyrazolo[3,4-b]pyridine-6-carboxylic acid], the “% Activation” value under setting [2] was 5.851%. Moreover, the pEC50 under setting [3] is below 5.00.

On to `CC(C)c1nn(-c2cccc(C#N)c2)c2nc(C(=O)O)cc(-c3ccc(N4CCOCC4)cc3)c12` [compound 49, 1-(3-cyanophenyl)-4-[4-(morpholin-4-yl)phenyl]-3-(propan-2-yl)-1H-pyrazolo[3,4-b]pyridine-6-carboxylic acid], for which the “% Activation” value under setting [2] is listed as 107%. Further, under setting [3], the pEC50 was 5.95.

For `CC(C)(CO)c1nn(-c2ccccc2)c2nc(C(=O)O)cc(-c3ccc(N4CCOCC4)cc3)c12` [compound 56, 3-(1-hydroxy-2-methylpropan-2-yl)-4-[4-(morpholin-4-yl)phenyl]-1-phenyl-1H-pyrazolo[3,4-b]pyridine-6-carboxylic acid], the “% Activation” value under setting [2] worked out at 53.1%. Moreover, the pEC50 under setting [3] is 5.48.

Consider `CC(=O)N1CCN(c2ccc(-c3cc(C(=O)O)nc4c3c(C)nn4-c3ccccc3)cc2)CC1` [compound 29, 4-[4-(4-acetylpiperazin-1-yl)phenyl]-3-methyl-1-phenyl-1H-pyrazolo[3,4-b]pyridine-6-carboxylic acid], for which the “% Activation” value under setting [2] was found to be 146.1%. The pEC50 under setting [3] is 5.51.

On to `Cc1nn(-c2ccccc2)c2nc(C(=O)O)cc(-c3ccc(N4CCC(F)C4)cc3)c12` (centres unmarked) [compound 28, 4-[4-(3-fluoropyrrolidin-1-yl)phenyl]-3-methyl-1-phenyl-1H-pyrazolo[3,4-b]pyridine-6-carboxylic acid], for which the “% Activation” value under setting [2] is on record as 129.5%. For the same compound, the pEC50 under setting [3] is 5.93.

In the case of `Cc1nn(-c2cccc(Cl)c2)c2nc(C(=O)O)cc(-c3ccc(N4CCOCC4)cc3)c12` [compound 11, 1-(3-chlorophenyl)-3-methyl-4-[4-(morpholin-4-yl)phenyl]-1H-pyrazolo[3,4-b]pyridine-6-carboxylic acid], the “% Activation” value under setting [2] amounted to 134.3%. Moreover, the negative logarithm of the EC50 (pEC50) under setting [3] was 5.86.

Regarding `Cc1nn(-c2ccccc2)c2nc(C(=O)O)cc(-c3ccc(N4CCN(C)CC4)cc3)c12` [compound 9, 3-methyl-4-[4-(4-methylpiperazin-1-yl)phenyl]-1-phenyl-1H-pyrazolo[3,4-b]pyridine-6-carboxylic acid], under setting [2], the “% Activation” value came to 31.76%. Also, the pEC50 under setting [3] is 5.48.

As for `COc1ccc(-c2cc(C(=O)O)nc3c2c(C)nn3CCC#N)cc1` [compound 4, 1-(2-cyanoethyl)-4-(4-methoxyphenyl)-3-methyl-1H-pyrazolo[3,4-b]pyridine-6-carboxylic acid], under setting [2], the “% Activation” value is 3.339%. The pEC50 under setting [3] is below 5.00.

Turning to `COc1cc(F)cc(-n2nc(C)c3c(-c4ccc(N5CCOCC5)cc4)cc(C(=O)O)nc32)c1` [compound 52, 1-(3-fluoro-5-methoxyphenyl)-3-methyl-4-[4-(morpholin-4-yl)phenyl]-1H-pyrazolo[3,4-b]pyridine-6-carboxylic acid], under setting [2], the “% Activation” value is reported as 87.35%. Further, under setting [3], the negative-log EC50 (pEC50) is 5.57.

In the case of `Cc1nn(-c2cccc(C(N)=O)c2)c2nc(C(=O)O)cc(-c3ccc(N4CCOCC4)cc3)c12` [compound 59, 1-(3-carbamoylphenyl)-3-methyl-4-[4-(morpholin-4-yl)phenyl]-1H-pyrazolo[3,4-b]pyridine-6-carboxylic acid], the “% Activation” value under setting [2] turned out to be 13.69%. Further, under setting [3], the pEC50 is below 5.00.

With `COc1cc(-n2nc(C)c3c(-c4ccc(N5CCOCC5)cc4)cc(C(=O)O)nc32)ccn1` [compound 51, 1-(2-methoxypyridin-4-yl)-3-methyl-4-[4-(morpholin-4-yl)phenyl]-1H-pyrazolo[3,4-b]pyridine-6-carboxylic acid], the “% Activation” value under setting [2] is reported as 41.22%. In addition, under setting [3], the pEC50 was 5.93.

In the case of `Cc1nn(-c2cc(F)cc(F)c2)c2nc(C(=O)O)cc(-c3ccc(N4CCOCC4)cc3)c12` [compound 10, 1-(3,5-difluorophenyl)-3-methyl-4-[4-(morpholin-4-yl)phenyl]-1H-pyrazolo[3,4-b]pyridine-6-carboxylic acid], the “% Activation” value under setting [2] was found to be 116.55%. Moreover, the negative-log EC50 (pEC50) under setting [3] was 6.06.
